From patent US10359430B2, “Selective near-infrared optical imaging of necrotic cells and simultaneous cell fixing and counter staining with metallacrown complexes” (THE REGENTS OF THE UNIVERSITY OF MICHIGAN, priority 2015, dated 2019)
Entries after “also recorded” stand apart in the source; their conditions may differ.

Assays:
HeLa cells = experiment: Cytotoxicity test with Alamar blue; type: cell-based, Human; details: FIG. 6, text says 5 hours, figure legend 24 and 48 hours
Procedure: In order to determine if the LnZn16(pyz)16MC complexes (Ln^3+Zn(II)MCHAD are toxic for live cells, cytotoxicity tests with Alamar blue were performed.
Alamar blue is viability reagent which functions as a cell health indicator by using the reducing power of living cells to quantitatively measure the proliferation of different human and animal cell lines. This enables the cytotoxicity of different chemical complexes to be determined. The active ingredient of Alamar Blue is resazurin, which is non-toxic and cell permeable compound, and upon entering in the cells, it is reduced to highly fluorescent resorufin.
The cytotoxicity tests were performed with Alamar blue assay (Invitrogen, France). HeLa cells were seeded in 96-well plate at the density of 1*10^4 cells per well and cultured at 37° C. in 5% humidified CO2 atmosphere. After 24 hours of attachment, the cells were incubated with different concentrations of Yb^3+[Zn(II)MCpyzHA] in cell culture medium for 24 and 48 hours followed by incubation with Alamar blue (10% v/v) for 3 to 4 hours at 37° C. in 5% humidified CO2 atmosphere.
Fluorescence of Alamar blue was measured with plate reader (Victor 3V, Perkin Elmer, France), with excitation at 530 nm and emission at 590 nm, for cells incubated with Yb^3+[Zn(II)MCpyzHA] and for untreated cells (control).

[1] = Photophysical parameters in OPTI-MEM media, cell supernatant and HeLa cells; type: physicochemical
Procedure: The Yb^3+[Zn(II)MCpyzHA] complexes were dissolved in OPTI-MEM® medium with 2% SVF (without cells) and were incorporated in HeLa cells, both with and without exposure to UV light. The results in are shown in FIG. 20, (A) (corrected and normalized excitation) and FIG. 20, (B) (corrected and normalized emission). […] The present inventors developed instrumentation in order to collect photophysical properties of MCs inside of cancer cells. They measured quantitative photophysical parameters (quantum yields and life times) inside of the cells with equipment which is usually adapted for measuring of (quantum yields and life times) in solids or in concentrated solutions.
The Yb^3+[Zn(II)MCpyzHA] complexes were collected together with cell supernatant (SN) and with HeLa cells treated with N-acetyl cysteine, both with and without exposure to UV light. For SN1 and cells1, incubation with NAC took place for 30 minutes, then the cells were washed, and incubation with Yb^3+[Zn(II)MCpyzHA] took place for 15 minutes. For SN2 and cells2, incubation with Yb^3+[Zn(II)MCpyzHA] took place for 15 minutes, and then NAC was added and incubation with NAC took place for 30 minutes. The results in are shown in FIGS. 20C (corrected and normalized excitation) and 20D (corrected and normalized emission). […]

[2] = Photophysical properties of the metallacrowns in solid state and in aqueous solutions; type: physicochemical
MSC stem cells = details: 150 μM, 15 minutes, UV light (377 nm) 8 minutes, further 1 hour; λex 458 nm, λem 499-799 nm
Procedure: For these confocal microscopy experiments, the HeLa or MSC cells were prepared in the same way as for the epifluorescence microscopy experiments (see Example 1, Short incubation, UV light exposure #1 and #3). […] Complexes were excited with Argon laser at 458 nm and emission signal was collected from 499 nm to 799 nm. During this experiment, a 63× Plan-Apochromat objective was used (2× zoom).

[3] = No UV NAC (SN1*): cell supernatant, NAC 30 minutes, washed, then complex 15 minutes
[4] = No UV NAC (SN2*): cell supernatant, complex 15 minutes, then NAC 30 minutes
[5] = No UV NAC (in cells1*): NAC 30 minutes, washed, then complex 15 minutes
[6] = No UV NAC (in cells2*): complex 15 minutes, then NAC 30 minutes
[7] = No UV: After 5 h of incubation with HeLa cells without illumination
[8] = UV NAC (SN2*): cell supernatant, complex 15 minutes, then NAC 30 minutes
[9] = UV NAC (in cells2*): complex 15 minutes, then NAC 30 minutes
[10] = UV: After 5 h of incubation with HeLa cells with UV illumination (during 8 min)

## O=C([N-][O-])c1cnccn1.O=C([N-][O-])c1cnccn1.O=C([N-][O-])c1cnccn1.O=C([N-][O-])c1cnccn1.O=C([N-][O-])c1cnccn1.O=C([N-][O-])c1cnccn1.O=C([N-][O-])c1cnccn1.O=C([N-][O-])c1cnccn1.O=C([N-][O-])c1cnccn1.O=C([N-][O-])c1cnccn1.O=C([N-][O-])c1cnccn1.O=C([N-][O-])c1cnccn1.O=C([N-][O-])c1cnccn1.O=C([N-][O-])c1cnccn1.O=C([N-][O-])c1cnccn1.O=C([N-][O-])c1cnccn1.O=S(=O)([O-])C(F)(F)F.O=S(=O)([O-])C(F)(F)F.O=S(=O)([O-])C(F)(F)F.[Yb+3].[Zn+2].[Zn+2].[Zn+2].[Zn+2].[Zn+2].[Zn+2].[Zn+2].[Zn+2].[Zn+2].[Zn+2].[Zn+2].[Zn+2].[Zn+2].[Zn+2].[Zn+2].[Zn+2].c1ccncc1.c1ccncc1.c1ccncc1.c1ccncc1.c1ccncc1.c1ccncc1.c1ccncc1.c1ccncc1 [Yb^3+[Zn(II)MCpyzHA]]
HeLa cells; 45 μM
  Cells remained alive: approximately 70%
HeLa cells
  Concentration from which the complex started to be significantly toxic: ≥ 45 µM
[1]; In HeLa cells
  Quantum yield: 2.14(6) · 10^−2%
  τ2: 23.6(7) μs
  τ2 contribution: 100%
[1]; [3]
  Quantum yield: 1.08(1) · 10^−2%
  τ1: 7.27(2) μs
  τ1 contribution: 91%
  τ2: 50(2) μs
  τ2 contribution: 9%
[1]; [4]
  Quantum yield: 1.00(4) · 10^−2%
  τ1: 6.72(3) μs
  τ1 contribution: 88%
  τ2: 28.4(1) μs
  τ2 contribution: 12%
[1]; [5]
  τ1: 7.5(4) μs
  τ1 contribution: 6%
  τ2: 22.9(1) μs
  τ2 contribution: 94%
[1]; [6]
  τ1: 7.3(1) μs
  τ1 contribution: 7%
  τ2: 23.6(2) μs
  τ2 contribution: 93%
[1]; [7]
  Quantum yield: 1.52(3) · 10^−2%
  τ1: 6.47(4) μs
  τ1 contribution: 75%
  τ2: 21.6(8) μs
  τ2 contribution: 25%
[1]; OptiMEM
  Quantum yield: 1.25(1) · 10^−2%
  τ1: 6.45(5) μs
  τ1 contribution: 89%
  τ2: 24(1) μs
  τ2 contribution: 11%
[1]; OptiMEM-UV 1 h 30 min
  Quantum yield: 2.05(5) · 10^−2%
  τ1: 7.03(3) μs
  τ1 contribution: 61%
  τ2: 21.5(1) μs
  τ2 contribution: 39%
[1]; [8]
  Quantum yield: 1.06(5) · 10^−2%
  τ1: 6.80(9) μs
  τ1 contribution: 75%
  τ2: 23(1) μs
  τ2 contribution: 25%
[1]; [9]
  τ1: 8.7(5) μs
  τ1 contribution: 9%
  τ2: 23.2(1) μs
  τ2 contribution: 91%
[1]; [10]
  Quantum yield: 1.64(5) · 10^−2%
  τ1: 6.51(8) μs
  τ1 contribution: 65%
  τ2: 21(1) μs
  τ2 contribution: 35%
[1]; all experimental conditions
  Contribution of the long lifetime inside of HeLa cells: more than 90%
[1]; cell culture media and cells, different experimental conditions
  Integrity of the MC: stays intact in cell culture media and in the cells
[1]; with/without exposure to UV light
  Change of luminescent properties in media, cell supernatant or HeLa cells: did not change in the cells; also recorded: did not change in cell supernatant or inside of the HeLa cells
[2]; 200 μM in D2O, room temperature, excitation at 355 nm
  τ (luminescence lifetime), D2O: 81.3(1) μs
[2]; 200 μM in H2O, room temperature, excitation at 355 nm
  τ (luminescence lifetime), H2O: 5.57(1) μs
[2]; calculated from lifetimes, estimated error ±0.2
  q (number of coordinated water molecules): 0
[2]; solid state, room temperature, excitation at 355 nm
  τ (luminescence lifetime), Solid: 45.6(3) μs
MSC stem cells
  Intracellular location (confocal, visible ligand emission): specifically located in nucleus as well as in cytoplasm
